The target in assay [1] is T1, Farnesyl diphosphate synthase (Escherichia coli K-12, UniProt P22939).
T1 sequence (P22939 whole entry): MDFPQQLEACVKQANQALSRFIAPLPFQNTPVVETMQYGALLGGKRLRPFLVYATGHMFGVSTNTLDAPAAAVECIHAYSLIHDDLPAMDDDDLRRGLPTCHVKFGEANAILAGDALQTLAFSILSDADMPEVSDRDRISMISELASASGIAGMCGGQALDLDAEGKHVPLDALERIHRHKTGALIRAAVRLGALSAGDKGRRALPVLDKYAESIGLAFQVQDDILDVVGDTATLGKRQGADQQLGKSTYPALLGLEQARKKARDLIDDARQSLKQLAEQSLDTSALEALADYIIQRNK
Description: Inhibition of Escherichia coli FPPS.

Assay [2] deals with Escherichia coli. The assay can be described thus: Antibacterial activity against Escherichia coli W3110. The assay is classed as functional.
The target of assay [3] is T2, 1-deoxy-D-xylulose 5-phosphate reductoisomerase (Escherichia coli K-12, UniProt P45568).
T2 sequence (P45568 whole entry): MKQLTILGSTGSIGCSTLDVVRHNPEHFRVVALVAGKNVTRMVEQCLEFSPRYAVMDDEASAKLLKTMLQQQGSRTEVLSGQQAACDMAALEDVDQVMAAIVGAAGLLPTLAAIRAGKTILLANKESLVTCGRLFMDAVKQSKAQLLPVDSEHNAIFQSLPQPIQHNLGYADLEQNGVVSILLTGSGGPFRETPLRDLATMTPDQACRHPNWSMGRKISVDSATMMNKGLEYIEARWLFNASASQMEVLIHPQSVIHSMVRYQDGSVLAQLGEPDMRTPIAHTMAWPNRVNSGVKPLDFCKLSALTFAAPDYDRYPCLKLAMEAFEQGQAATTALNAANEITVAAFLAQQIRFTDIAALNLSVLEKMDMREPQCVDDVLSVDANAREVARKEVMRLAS
Description: Inhibition of Escherichia coli DXR.

Assay [4] can be described thus: Inhibition of Trypanosoma brucei FPPS expressed in Escherichia coli.
Assay [5] deals with Escherichia coli. The assay can be described thus: Antibacterial activity against Escherichia coli K12. Format: functional.
Assay [6] deals with Escherichia coli. Description: Antibacterial activity against Escherichia coli pTMV19 in presence of mevalonate. Format: functional.
Assay [7] has as its system Escherichia coli. The assay can be described thus: Antibacterial activity against Escherichia coli pTMV19. Format: functional.
Assay [8] relates to Escherichia coli. Description: Antibacterial activity against Escherichia coli K12 in presence of fosmidomycin. The assay is classed as functional.
The subject of assay [9] is Escherichia coli. Description: Ratio, MIC/MBC for Escherichia coli K12. The assay is classed as functional.
The subject of assay [10] is Escherichia coli. Description: Antibacterial activity against Escherichia coli K12 by broth microdilution method. Format: functional, organism-based. (Broth dilution looks for growth in wells or tubes with falling amounts of substance.)
Assay [11] deals with Escherichia coli. The assay can be described thus: Ratio, MIC/MBC for Escherichia coli K12 in presence of fosmidomycin. The assay is classed as functional.

≈ marks a conversion by molar mass, not a printed value.

By IC50 is commonly meant the point on the concentration scale where inhibition reaches its midpoint. Low values mean greater potency in that assay, high ones weaker potency in that assay. Broadly, the MBC is the smallest concentration meeting the test's criterion for killing. As usually defined, the MIC is the least concentration at which growth counts as inhibited.

Take `CN(CCCCc1ccccc1)CCC(O)(P(=O)(O)O)P(=O)(O)O`: the IC50 came to 1.3 µM in [1], 245 µM in assay [3], 444 µM in [4] and 33 µM with Escherichia coli [10]. In addition, the results for the “inhibition zone (IZ)” value in the assay on Escherichia coli [2], in the assay on Escherichia coli [6] and in the assay with Escherichia coli [7] were 19 mm, 17 mm and 18 mm, respectively. Moreover, the figures for the MBC in the assay with Escherichia coli [5] and in the assay with Escherichia coli [8] were 1250 µM (≈ 477 µg/mL) and 625 µM, respectively. Further, the MIC in the assay on Escherichia coli [5] stood at 156 µM (≈ 59.5 µg/mL); with Escherichia coli [8], 312 µM. Further, the Ratio stood at 0.13 with Escherichia coli [9] and 0.5 with Escherichia coli [11].

(Values after ChEMBL document CHEMBL1138862 (J Med Chem, 2006).)
